Data published in ChEMBL document CHEMBL1140483, “High dopamine transporter selectivity can be displayed by remarkably simple non-nitrogen containing inhibitors” (Bioorg Med Chem Lett, 2007).

Columns and labels:
[1] = target: Sodium-dependent noradrenaline transporter (Homo sapiens, UniProt P23975); assay: Displacement of [125I]RTI55 from human NET transfected in COS1 cells; type: cell-based, COS-1
Homo sapiens [2] = organism: Homo sapiens; assay: Selectivity for human DAT over human SERT
Homo sapiens [3] = organism: Homo sapiens; assay: Selectivity for human DAT over human NET
[4] = target: Sodium-dependent serotonin transporter (Homo sapiens, UniProt P31645); assay: Displacement of [125I]RTI55 from human SERT transfected in COS1 cells; type: cell-based, COS-1
[5] = target: Sodium-dependent dopamine transporter (Homo sapiens, UniProt Q01959); assay: Displacement of [125I]RTI55 from human DAT transfected in COS1 cells; type: cell-based, COS-1
Sodium-dependent dopamine transporter, sequence (Q01959 whole entry): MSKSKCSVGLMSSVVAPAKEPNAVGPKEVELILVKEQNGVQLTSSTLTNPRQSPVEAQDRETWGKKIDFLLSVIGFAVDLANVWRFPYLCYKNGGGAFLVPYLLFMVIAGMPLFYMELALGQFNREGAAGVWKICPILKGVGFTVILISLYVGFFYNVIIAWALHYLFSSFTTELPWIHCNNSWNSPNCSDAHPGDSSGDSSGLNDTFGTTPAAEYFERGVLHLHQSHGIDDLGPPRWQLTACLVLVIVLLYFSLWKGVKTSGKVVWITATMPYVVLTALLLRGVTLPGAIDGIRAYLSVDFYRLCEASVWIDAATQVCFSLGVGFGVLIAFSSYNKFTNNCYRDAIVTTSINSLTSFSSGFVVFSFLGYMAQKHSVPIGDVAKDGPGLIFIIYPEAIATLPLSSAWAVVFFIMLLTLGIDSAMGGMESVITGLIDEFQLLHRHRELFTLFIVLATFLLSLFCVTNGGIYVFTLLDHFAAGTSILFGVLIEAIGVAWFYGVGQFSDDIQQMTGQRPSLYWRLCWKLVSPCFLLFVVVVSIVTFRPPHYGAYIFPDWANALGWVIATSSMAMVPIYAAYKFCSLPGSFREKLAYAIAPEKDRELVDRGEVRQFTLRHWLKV

Sodium-dependent serotonin transporter, sequence (P31645 whole entry): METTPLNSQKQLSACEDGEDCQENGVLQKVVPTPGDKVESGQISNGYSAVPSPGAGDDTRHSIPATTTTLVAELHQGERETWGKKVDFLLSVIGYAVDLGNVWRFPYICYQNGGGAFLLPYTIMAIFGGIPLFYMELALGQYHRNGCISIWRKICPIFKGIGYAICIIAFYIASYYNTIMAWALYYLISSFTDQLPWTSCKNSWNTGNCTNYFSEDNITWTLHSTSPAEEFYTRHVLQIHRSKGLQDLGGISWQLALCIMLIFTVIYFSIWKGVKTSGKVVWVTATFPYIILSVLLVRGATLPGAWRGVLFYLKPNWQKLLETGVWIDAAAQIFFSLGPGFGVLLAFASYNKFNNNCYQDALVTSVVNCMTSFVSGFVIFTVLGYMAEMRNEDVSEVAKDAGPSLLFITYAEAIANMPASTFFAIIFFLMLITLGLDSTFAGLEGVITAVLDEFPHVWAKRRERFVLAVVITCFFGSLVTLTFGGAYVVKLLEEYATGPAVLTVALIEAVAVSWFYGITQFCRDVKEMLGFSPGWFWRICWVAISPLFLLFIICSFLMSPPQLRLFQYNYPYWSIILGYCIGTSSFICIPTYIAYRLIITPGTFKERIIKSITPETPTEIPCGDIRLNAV
Sodium-dependent noradrenaline transporter, sequence (P23975 whole entry): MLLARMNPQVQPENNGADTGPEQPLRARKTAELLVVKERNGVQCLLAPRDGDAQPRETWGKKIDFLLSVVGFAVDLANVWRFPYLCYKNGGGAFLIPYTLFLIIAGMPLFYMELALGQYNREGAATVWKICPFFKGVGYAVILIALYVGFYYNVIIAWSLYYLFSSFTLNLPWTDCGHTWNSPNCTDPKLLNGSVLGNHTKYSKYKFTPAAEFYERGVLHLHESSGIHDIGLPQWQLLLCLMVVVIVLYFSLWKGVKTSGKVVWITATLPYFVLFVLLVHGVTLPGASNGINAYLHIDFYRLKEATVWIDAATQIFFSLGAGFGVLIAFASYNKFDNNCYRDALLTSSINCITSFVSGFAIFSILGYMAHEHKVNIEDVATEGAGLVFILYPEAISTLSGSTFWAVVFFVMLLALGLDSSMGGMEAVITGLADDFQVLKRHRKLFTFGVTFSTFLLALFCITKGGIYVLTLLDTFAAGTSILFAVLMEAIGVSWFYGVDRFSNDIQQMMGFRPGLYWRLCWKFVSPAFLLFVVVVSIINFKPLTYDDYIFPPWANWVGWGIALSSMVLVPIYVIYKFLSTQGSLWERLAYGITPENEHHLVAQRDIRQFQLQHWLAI

Compound	Ki [1]	Ratio Ki (Homo sapiens [2])	Ratio Ki (Homo sapiens [3])	Ki [4]	Ki [5]
Cc1ccccc1OC(=O)C1=C(c2ccc(Cl)c(Cl)c2)CCC1	33 µM	> 2300	150	> 500 µM	0.22 µM
O=C(OCCF)C1=C(c2ccc(Cl)c(Cl)c2)CCC1	5.8 µM	780	12	390 µM	0.5 µM
CC(C)OC(=O)C1=C(c2ccc(Cl)c(Cl)c2)CCC1	26 µM	190	10	500 µM	2.6 µM
CON(C)C(=O)C1=C(c2ccc(Cl)c(Cl)c2)CCC1	250 µM	84	39	540 µM	6.4 µM
O=C(C1=C(c2ccc(Cl)c(Cl)c2)CCC1)N1CCCC1	410 µM	9	7	520 µM	58 µM
O=C(OCC(F)(F)F)C1=C(c2ccc(Cl)c(Cl)c2)CCC1	170 µM		50	> 1000 µM	3.4 µM
O=C(OCc1cccs1)C1=C(c2ccc(Cl)c(Cl)c2)CCC1	42 µM	2300	110	910 µM	0.4 µM
O=C(OCCO)C1=C(c2ccc(Cl)c(Cl)c2)CCC1	9 µM	170	30	50 µM	0.3 µM
Cc1cccc(OC(=O)C2=C(c3ccc(Cl)c(Cl)c3)CCC2)c1	> 100 µM	> 17000	> 1700	> 1000 µM	0.06 µM
O=C(C1=C(c2ccc(Cl)c(Cl)c2)CCC1)N1CCOCC1	300 µM	> 45	27	> 500 µM	11 µM
O=C(Oc1ccccc1)C1=C(c2ccc(Cl)c(Cl)c2)CCC1	85 µM	> 2900	500	> 500 µM	0.17 µM
O=C(OCc1ccco1)C1=C(c2ccc(Cl)c(Cl)c2)CCC1	61 µM	16	41	24 µM	1.5 µM
CONC(=O)C1=C(c2ccc(Cl)c(Cl)c2)CCC1	9.2 µM	> 600	11	> 500 µM	0.83 µM
CCN(CC)C(=O)C1=C(c2ccc(Cl)c(Cl)c2)CCC1	210 µM	3.2	2.2	300 µM	94 µM
O=C(NCc1cccs1)C1=C(c2ccc(Cl)c(Cl)c2)CCC1	18 µM	790	130	110 µM	0.14 µM
O=C(NC1CCC1)C1=C(c2ccc(Cl)c(Cl)c2)CCC1	50 µM	> 110	5.6	> 1000 µM	9 µM
O=C(NCc1ccco1)C1=C(c2ccc(Cl)c(Cl)c2)CCC1	12 µM	800	400	24 µM	0.03 µM
O=C(NCCF)C1=C(c2ccc(Cl)c(Cl)c2)CCC1	8 µM	> 7100	110	> 500 µM	0.07 µM
O=C(OC1CCCCC1)C1=C(c2ccc(Cl)c(Cl)c2)CCC1	130 µM	> 83	11	> 1000 µM	12 µM
COC(=O)C1=C(c2ccc(Cl)c(Cl)c2)CCC1		410	6		
